“Also recorded” adds a separate entry of the source.
Experiments:
[1] = test system: Human osteosarcoma cells (U-2 OS); assay: EdU proliferation assay in human cell line; format: cell-based; details: osteoblastic / immortalized cells (U-2 OS), four hours after drug introduction; positive control c-Myc inhibitor 10058-F4
Description: FIG. 16 (A)-(C): Effect of DA5 in human cell culture. Proliferation of osteoblastic cells was measured following introduction of DA5.
Human osteosarcoma cells (U-2 OS) were obtained from ATCC (HTB-96) and re-suspended in McCoy's 5a medium (ATCC 30-2007) containing 10% FBS and penicillin/streptomycin. Cells were passaged at least 5 times before use in proliferation assays. To perform the proliferation assay, cells were trypsinized using standard protocols, plated at 1000 cells per well in 96-well clear-bottom black cell culture treated plates, and allowed 24 hours to attach. Compounds of interest were dissolved in DMSO and introduced at an overall DMSO concentration not exceeding 0.1% by volume. Four hours after drug introduction, cells were stained and fixed using the protocol described in the Click-iT EdU Alexa Fluor 488 Imaging kit (Thermo Fisher), with Hoescht staining used to identify total cell numbers. Each well was imaged using a Nikon Eclipse Ti Epifluorescent microscope with automated stage and counts of dividing and total cells were obtained in an automated fashion using Nikon's NIS Elements software. Percent of dividing cells reported is the result of at least 4 replicates. Controls were given the same DMSO concentration by volume as compound-treated wells.

[2] = biological target: T1, recombinant human Topoisomerase I (Homo sapiens, UniProt P11387); assay: Topoisomerase I and DNA binding gel electrophoresis assay; format: biochemical
T1 construct: purchased TopoGEN, Inc. TG2005H
T1 sequence (P11387 1-765): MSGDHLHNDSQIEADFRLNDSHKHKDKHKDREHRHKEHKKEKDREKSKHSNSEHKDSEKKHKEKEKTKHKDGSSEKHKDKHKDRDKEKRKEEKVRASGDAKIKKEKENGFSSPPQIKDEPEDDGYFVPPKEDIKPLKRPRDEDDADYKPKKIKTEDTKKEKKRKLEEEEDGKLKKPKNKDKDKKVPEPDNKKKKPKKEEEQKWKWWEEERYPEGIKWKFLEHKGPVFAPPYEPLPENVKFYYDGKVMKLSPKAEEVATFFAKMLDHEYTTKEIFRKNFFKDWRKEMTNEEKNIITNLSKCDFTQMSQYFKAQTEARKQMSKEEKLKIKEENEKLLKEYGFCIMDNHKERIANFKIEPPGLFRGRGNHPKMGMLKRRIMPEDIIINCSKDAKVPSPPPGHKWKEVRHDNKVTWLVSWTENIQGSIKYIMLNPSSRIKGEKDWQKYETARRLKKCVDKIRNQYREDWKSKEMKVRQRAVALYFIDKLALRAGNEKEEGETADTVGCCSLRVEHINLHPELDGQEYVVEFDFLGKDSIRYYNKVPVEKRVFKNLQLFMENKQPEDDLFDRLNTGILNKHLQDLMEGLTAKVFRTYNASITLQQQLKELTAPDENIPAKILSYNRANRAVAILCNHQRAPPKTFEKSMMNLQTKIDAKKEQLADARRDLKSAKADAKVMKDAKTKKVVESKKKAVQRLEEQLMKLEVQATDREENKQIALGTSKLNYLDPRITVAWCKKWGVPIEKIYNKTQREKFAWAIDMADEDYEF
Description: FIG. 12: Topoisomerase I and DNA binding assay for DA5. The effect of DA5 on Topoisomerase-mediated DNA unwinding is measured through a gel electrophoresis assay (see Methods).
0.5 ug of pHOT-1 supercoiled DNA (TopoGEN, Inc. TG2030-2) was combined with 2× Topoisomerase I assay buffer (50 mM Tris-HCL (ph7.9), 1 mM EDTA, 1 mM DTT, 20% (v/v) glycerol, 50 mM NaCl), nuclease free water and either DMSO vehicle control, m-AMSA positive control (100-1000 uM; TopoGEN, Inc. […] TG2005H) was added to treatments corresponding to lanes 3-12 with 2 ul of dilution buffer (5 mM Tris-HCL (pH 7.9), 1 mM EDTA, 1 mM DTT, 50% (v/v) glycerol, 500 mM NaCl) added to control treatments lacking enzyme (lanes 2, 13 and 14). Reactions were mixed and incubated at 37° C. for 30 minutes. Reactions were terminated with the addition of 20 ul nuclease free water and 50 ul of 1-butanol (water-saturated) followed by vortex and centrifugation at 13,000 rpm for 1 minute. The lower aqueous phase was removed and added to 50 ul chloroform/isoamyl alcohol (24/1) and 50 ul of 2×STEB buffer (40% (w/v) sucrose, 100 mM Tris-HCL (pH 8), 1 mM EDTA, 0.5 mg/ml bromophenol blue) followed by mixing and centrifugation at 13,000 rpm for 1 minute. […] The gel was stained with ethidium bromide for 15 minutes followed by de-staining in distilled water for 10 minutes. Gels were exposed and images acquired using the iBrightFL1000 gel documentation system (Invitrogen).

[3] = test system: Phospholipase D (Streptomyces chromofuscus); assay: In vitro Phospholipase D activity assay (Amplex Red kit); format: biochemical; details: listed as DA5
embryonic zebrafish = assay: Blinded re-screen of top 10 prioritized ChemBridge compounds for developmental phenotypes in embryonic zebrafish; format: in vivo
Description: Male and female wild-type (AB) fish were housed and embryos bred for screening using standard protocols. […] 10 mM compound stocks were diluted to 2 mM using DMSO, and 1 μL of each diluted compound solution was introduced into individual wells at 5 hours post fertilization (hpf) using a manual multichannel pipettor (10 uM final concentration). The first and last column of each plate received only DMSO, serving as negative control wells.
Embryos were screened for a series of developmental phenotypes at both 24 and 48 hpf using standard light microscopy. […] Only those wells where at least two of the three embryos were dead or delayed were annotated as a hit for 24 hour death or delay/arrest, respectively.
Resulting scores for each phenotype were used to rank the over 900,000 compounds. Enrichment for compounds with high (>0.95) similarity to known therapeutics (defined using Tanimoto Coefficient of molecular fingerprints) was calculated for each of the 6 ranked lists using gene set enrichment analysis^69. The top 10 highest-ranking compounds from each of the 6 lists were screened as described above, blinded and in duplicate.

zebrafish embryos = assay: DA5 dose, time course and washout analysis of developmental delay/arrest; format: in vivo
Description: FIG. 4 (A)-(E): Function of delay/arrest compounds. 7 of the 10 compounds predicted as having a delay/arrest phenotype with the highest confidence caused obvious but divergent delay/arrest effects (A). For chemical structures associated with these Chembridge IDs see Figure S13. (www.chembridge.com). Some arrested development at shield stage, while others caused a slower developmental progression.
We reasoned that this was likely due to differences in the target affinities of the various DA compounds.

In the case of `CCC1(CC)CCN(C(=O)c2cc(COc3ccc4ncccc4c3)on2)C1` [ChemBridge ID 65692859, 6-([3-[(3,3-diethylpyrrolidin-1-yl)carbonyl]isoxazol-5-yl]methoxy)quinoline], the “suppression of cell proliferation” value [1] is reported as “greater than that seen with positive control”, the “DNA-binding / DNA intercalation / inhibition of Topoisomerase I” value ([2]; DNA intercalation analysis, listed as DA5) is reported as “not due to DNA-binding or inhibition of Topoisomerase (TOPO) I; also recorded: not observed” and the “effect on Topoisomerase-mediated DNA unwinding (gel electrophoresis)” value ([2]; concentrations up to 100 mM (so in the source), versus DMSO) is reported as “no more effect on DNA cleavage than DMSO”. The “activity of phospholipase D” value [3] was “decrease in the activity; also recorded: inhibit phospholipase D activity”, the “Hit (predicted phenotype observed)” value (embryonic zebrafish; Prediction: Delay/Arrest) was “Yes” and the “Phenotype Observed” value (embryonic zebrafish; embryonic zebrafish, 10 uM introduced at 5 hpf, scored at 24 and 48 hpf, blinded, in duplicate) was “Bud stage at 24 h, dead at 48 h”. The “time course analysis: effect in more developed embryos” value (zebrafish embryos; introduced at 24 hours post fertilization and beyond) was “mortality being almost immediate”, the “time course analysis: effect on early development” value (zebrafish embryos; introduced at early stages (<12 h), up to and during gastrulation, listed as DA5) was “arrest up to and during gastrulation immediately after introduction; also recorded: arrested development at any stage of early (<12 h) development” and the developmental phenotype (zebrafish embryos; introduced in zebrafish embryo medium at 5 μM) was “developmental delay”. For the same compound, the developmental phenotype (zebrafish embryos; introduced in zebrafish embryo medium at 10 μM) was “sphere stage arrest” and the “recovery of embryos after washout” value (zebrafish embryos; washout of compound) was “did not allow embryos to recover”.

— US12605374B2, “Methods for drug screening and compositions useful for the inhibition of cell proliferation and/or cell survival” (The Brigham and Women's Hospital, Inc., priority 2019, dated 2026)
